Measured values: patent US10167262B2, “Herbicidal substituted 3-arylpyrazoles” (FMC CORPORATION, priority 2014, dated 2019)

What was measured:
Assay type in all cases: in vivo
[1] = system: Italian ryegrass (Lolium multiflorum); assay: Test C pre-/postemergence greenhouse test, plant response rating 0-100
Procedure, shortened: (§1)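 Visual 0–100 control scores, taken 13 to 15 days post-application in a greenhouse, reflect treatment preemergence (seed in loam soil with sand) or postemergence (2–18 cm plants in peat moss, vermiculite medium). A dash marks no result.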

[2] = system: blackgrass (Alopecurus myosuroides); assay: as above;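 note: 0 is no effect and 100 is complete control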
Procedure, shortened: as §1

corn (Zea mays) = assay: as above
Procedure, shortened: as §1

[3] = system: galium (catchweed bedstraw, Galium aparine); assay: as above
Procedure, shortened: as §1

[4] = system: giant foxtail (Setaria faberii); assay: as above
Procedure, shortened: as §1

[5] = system: large (Lg) crabgrass (Digitaria sanguinalis); assay: as above
Procedure, shortened: as §1

[6] = system: pigweed (Amaranthus retroflexus); assay: as above
Procedure, shortened: as §1

[7] = system: ragweed (common ragweed, Ambrosia elatior); assay: as above;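 note: 0 is no effect and 100 is complete control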
Procedure, shortened: as §1

soybean (Glycine max) = assay: as above
Procedure, shortened: as §1

[8] = system: winter wheat (Triticum aestivum); assay: as above
Procedure, shortened: as §1

[9] = system: yellow nutsedge (Cyperus esculentus); assay: as above
Procedure, shortened: as §1

[10] = system: chickweed (common chickweed, Stellaria media); assay: Test C postemergence greenhouse test, plant response rating 0-100; details: for Plant response rating, Chickweed: scale 0 to 100
Procedure, shortened: (§2)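 Formulated compounds applied postemergence; plants 1- to 4-leaf stage. Evaluated visually vs. untreated controls after roughly two weeks (13–15 d) under greenhouse conditions; 100 denotes complete control.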

kochia (Kochia scoparia) = assay: as above; details: for Plant response rating, Kochia: scale 0 to 100
Procedure, shortened: as §2

wild oat (Avena fatua) = assay: as above; details: for Plant response rating, Oat, Wild: scale 0 to 100
Procedure, shortened: as §2

[11] = Postemergence, 250 g ai/ha, scale 0 to 100
[12] = Postemergence, 500 g ai/ha, scale 0 to 100

O=Cn1cc(C(=O)c2ccccc2)c(-c2cc(Cl)cc(Cl)c2)n1 [Compound 28]
95: Plant response rating (0 to 100), Chickweed ([10]; 62 g ai/ha) | Plant response rating (0 to 100), Chickweed ([10]; 125 g ai/ha)
100: Plant response rating, Pigweed [6, 12] | Plant response rating, Pigweed ([6]; Preemergence, 62 g ai/ha) | Plant response rating, Pigweed ([6]; Preemergence, 125 g ai/ha) | Plant response rating, Pigweed ([6]; Preemergence, 250 g ai/ha) | Plant response rating, Pigweed ([6]; Preemergence, 500 g ai/ha) | Plant response rating, Chickweed ([10]; 250 g ai/ha)
40: Plant response rating (0 to 100), Galium ([3]; Postemergence, 125 g ai/ha)
70: Plant response rating, Ragweed [7, 11]
20: Plant response rating, Galium ([3]; Preemergence, 62 g ai/ha)
45: Plant response rating (0 to 100), Ragweed ([7]; Postemergence, 125 g ai/ha)
80: Plant response rating, Galium ([3]; Preemergence, 125 g ai/ha) | Plant response rating, Galium ([3]; Preemergence, 250 g ai/ha) | Plant response rating, Galium ([3]; Preemergence, 500 g ai/ha) | Plant response rating (0 to 100), Kochia (kochia (Kochia scoparia); 62 g ai/ha)
75: Plant response rating, Ragweed ([7]; Preemergence, 125 g ai/ha)
65: Plant response rating, Ragweed ([7]; Preemergence, 62 g ai/ha)
0: Plant response rating (0 to 100), Ryegrass, Italian ([1]; Postemergence, 62 g ai/ha) | Plant response rating (0 to 100), Ryegrass, Italian ([1]; Postemergence, 125 g ai/ha) | Plant response rating, Ryegrass, Italian [1, 11] | Plant response rating, Ryegrass, Italian [1, 12] | Plant response rating, Ryegrass, Italian ([1]; Preemergence, 62 g ai/ha) | Plant response rating, Ryegrass, Italian ([1]; Preemergence, 125 g ai/ha) | Plant response rating, Ryegrass, Italian ([1]; Preemergence, 250 g ai/ha) | Plant response rating, Ryegrass, Italian ([1]; Preemergence, 500 g ai/ha) | Plant response rating (0 to 100), Blackgrass ([2]; Postemergence, 62 g ai/ha) | Plant response rating, Blackgrass ([2]; Postemergence, 125 g ai/ha, scale 0 to 100) | Plant response rating, Blackgrass [2, 11] | Plant response rating, Blackgrass [2, 12] | Plant response rating, Blackgrass ([2]; Preemergence, 62 g ai/ha) | Plant response rating, Blackgrass ([2]; Preemergence, 125 g ai/ha) | Plant response rating (0 to 100), Corn (corn (Zea mays); Postemergence, 62 g ai/ha) | Plant response rating (0 to 100), Corn (corn (Zea mays); Postemergence, 125 g ai/ha) | Plant response rating, Corn (corn (Zea mays); [11]) | Plant response rating, Corn (corn (Zea mays); [12]) | Plant response rating, Corn (corn (Zea mays); Preemergence, 62 g ai/ha) | Plant response rating, Corn (corn (Zea mays); Preemergence, 125 g ai/ha) | Plant response rating, Corn (corn (Zea mays); Preemergence, 250 g ai/ha) | Plant response rating, Corn (corn (Zea mays); Preemergence, 500 g ai/ha) | Plant response rating (0 to 100), Foxtail, Giant ([4]; Postemergence, 62 g ai/ha) | Plant response rating, Foxtail, Giant [4, 11] | Plant response rating, Foxtail, Giant [4, 12] | Plant response rating, Foxtail, Giant ([4]; Preemergence, 62 g ai/ha) | Plant response rating, Foxtail, Giant ([4]; Preemergence, 125 g ai/ha) | Plant response rating (0 to 100), Crabgrass, Large ([5]; Postemergence, 62 g ai/ha) | Plant response rating (0 to 100), Crabgrass, Large ([5]; Postemergence, 125 g ai/ha) | Plant response rating, Crabgrass, Large [5, 11] | Plant response rating, Crabgrass, Large [5, 12] | Plant response rating, Crabgrass, Large ([5]; Preemergence, 62 g ai/ha) | Plant response rating, Crabgrass, Large ([5]; Preemergence, 125 g ai/ha) | Plant response rating (0 to 100), Soybean (soybean (Glycine max); Postemergence, 62 g ai/ha) | Plant response rating (0 to 100), Soybean (soybean (Glycine max); Postemergence, 125 g ai/ha) | Plant response rating, Soybean (soybean (Glycine max); Preemergence, 62 g ai/ha) | Plant response rating, Soybean (soybean (Glycine max); Preemergence, 125 g ai/ha) | Plant response rating, Soybean (soybean (Glycine max); Preemergence, 250 g ai/ha) | Plant response rating, Soybean (soybean (Glycine max); Preemergence, 500 g ai/ha) | Plant response rating (0 to 100), Wheat ([8]; Postemergence, 62 g ai/ha) | Plant response rating (0 to 100), Wheat ([8]; Postemergence, 125 g ai/ha) | Plant response rating, Wheat [8, 11] | Plant response rating, Wheat [8, 12] | Plant response rating, Wheat ([8]; Preemergence, 62 g ai/ha) | Plant response rating, Wheat ([8]; Preemergence, 125 g ai/ha) | Plant response rating, Wheat ([8]; Preemergence, 250 g ai/ha) | Plant response rating, Wheat ([8]; Preemergence, 500 g ai/ha) | Plant response rating (0 to 100), Nutsedge, Yellow ([9]; Postemergence, 62 g ai/ha) | Plant response rating (0 to 100), Nutsedge, Yellow ([9]; Postemergence, 125 g ai/ha) | Plant response rating, Nutsedge, Yellow [9, 12] | Plant response rating, Nutsedge, Yellow ([9]; Preemergence, 62 g ai/ha) | Plant response rating, Nutsedge, Yellow ([9]; Preemergence, 125 g ai/ha) | Plant response rating, Nutsedge, Yellow ([9]; Preemergence, 250 g ai/ha) | Plant response rating, Nutsedge, Yellow ([9]; Preemergence, 500 g ai/ha) | Plant response rating (0 to 100), Oat, Wild (wild oat (Avena fatua); 62 g ai/ha) | Plant response rating (0 to 100), Oat, Wild (wild oat (Avena fatua); 125 g ai/ha) | Plant response rating, Oat, Wild (wild oat (Avena fatua); 250 g ai/ha) | Plant response rating, Oat, Wild (wild oat (Avena fatua); 500 g ai/ha)
85: Plant response rating, Ragweed [7, 12] | Plant response rating (0 to 100), Kochia (kochia (Kochia scoparia); 125 g ai/ha) | Plant response rating, Kochia (kochia (Kochia scoparia); 250 g ai/ha)
98: Plant response rating (0 to 100), Pigweed ([6]; Postemergence, 125 g ai/ha) | Plant response rating, Pigweed [6, 11] | Plant response rating, Ragweed ([7]; Preemergence, 500 g ai/ha) | Plant response rating, Chickweed ([10]; 500 g ai/ha)
10: Plant response rating, Foxtail, Giant ([4]; Preemergence, 250 g ai/ha) | Plant response rating, Foxtail, Giant ([4]; Preemergence, 500 g ai/ha)
35: Plant response rating, Galium [3, 11]
30: Plant response rating, Galium [3, 12]
90: Plant response rating (0 to 100), Pigweed ([6]; Postemergence, 62 g ai/ha) | Plant response rating, Ragweed ([7]; Preemergence, 250 g ai/ha) | Plant response rating, Kochia (kochia (Kochia scoparia); 500 g ai/ha)
5: Plant response rating, Blackgrass ([2]; Preemergence, 250 g ai/ha) | Plant response rating, Blackgrass ([2]; Preemergence, 500 g ai/ha) | Plant response rating (0 to 100), Galium ([3]; Postemergence, 62 g ai/ha) | Plant response rating (0 to 100), Foxtail, Giant ([4]; Postemergence, 125 g ai/ha) | Plant response rating, Soybean (soybean (Glycine max); [11]) | Plant response rating, Soybean (soybean (Glycine max); [12]) | Plant response rating, Nutsedge, Yellow [9, 11]
60: Plant response rating (0 to 100), Ragweed ([7]; Postemergence, 62 g ai/ha)
15: Plant response rating, Crabgrass, Large ([5]; Preemergence, 250 g ai/ha) | Plant response rating, Crabgrass, Large ([5]; Preemergence, 500 g ai/ha)
